system: DBA/2 mice; assay: Audiogenic seizure model; format: in vivo; settings: Mus musculus; DBA/2 mice, oral, dose 5 mg/kg, auditory stimulation 1 hour after administration; read-out: Seizure suppression
Description: The animal model used in this test is a phenotype model for partial seizure (including secondary generalized seizure) and generalized tonic-clonic seizure, and has high clinical predictability. This test was performed in accordance with the report of De Sarro et al (Br J Pharmacol. 1988 February; 93 (2): 247-56. Anticonvulsant effects of some calcium entry blockers in DBA/2 mice. De Sarro G B, Meldrum B S, Nistico G.).
In this test example, the example compounds shown in Tables 3-1 to 3-3 below were used as test compounds.
The test compounds were suspended in 5% gum arabic/distilled water (w/v), and administered by forced oral administration to male and female DBA/2 mice (Japan SLC, Inc., 3 weeks old, 8 per group) at a dose of 30 mg/kg. After one hour of the oral administration of the test compound, each mouse was placed in a transparent acrylic cylinder 30 cm high and 23 cm in diameter, and 30 seconds were allowed for habituation. Then, they were exposed to auditory stimulation (12.6 kHz, 100-110 dB) for 1 minute or until a tonic seizure occurred.
The seizure response was assessed using the following scale, 0: no seizure, 1: wild running, 2: clonic seizure, 3: tonic seizure and 4: respiratory arrest. The maximum response was recorded as the seizure severity score.
The seizure suppression rate for each compound administration group was calculated according to the following formula.
Here, a rate of seizure suppression of 90% or more was expressed as “A”, a rate of seizure suppression of 70% or more and less than 90% was expressed as “B”, and a rate of seizure suppression of 50% or more and less than 70% was expressed as “C”.

Structure (SMILES) | inhibition in vivo at 5 mg/kg
Fc1cccc(Oc2ncc(-c3ccc4nccn4c3)cn2)c1F [Example 164] | > 90%
Fc1ccc(Oc2ncc(-c3ccc4nccn4c3)cn2)c(F)c1 [Example 165] | > 90%
Fc1ccc(F)c(Oc2ncc(-c3ccc4nccn4c3)cn2)c1 [Example 166] | > 90%
Fc1cccc(F)c1Oc1ncc(-c2ccc3nccn3c2)cn1 [Example 167] | > 90%
Fc1ccc(Oc2ncc(-c3ccc4nccn4c3)cn2)cc1F [Example 168] | > 90%
Fc1cc(F)cc(Oc2ncc(-c3ccc4nccn4c3)cn2)c1 [Example 169] | > 90%

same assay, conditions: Mus musculus; DBA/2 mice, oral, dose 30 mg/kg, auditory stimulation 1 hour after administration; read-out: Seizure suppression

Structure (SMILES) | inhibition in vivo at 30 mg/kg
Fc1cccc(Oc2ncc(-c3ccc4nccn4n3)cn2)c1 [Example 125] | > 90%
Fc1ccc(Oc2ncc(-c3ccc4nccn4n3)cn2)cc1 [Example 126] | > 90%
c1ccc(Oc2ncc(-c3cnc4nccn4c3)cn2)cc1 [Example 128] | > 90%
Fc1ccccc1Oc1ncc(-c2ccn3ccnc3c2)cn1 [Example 130] | > 90%
Fc1cccc(Oc2ncc(-c3ccn4ccnc4c3)cn2)c1 [Example 131] | > 90%
Fc1ccc(Oc2ncc(-c3ccn4ccnc4c3)cn2)cc1 [Example 132] | > 90%
c1ccc(Oc2ncc(-c3cnc4[nH]ncc4c3)cn2)cc1 [Example 133] | > 90%
c1ccc(Oc2ncc(-c3ccn4ncnc4c3)cn2)cc1 [Example 135] | > 90%
c1ccc(Oc2ncc(-c3cccc4nccn34)cn2)cc1 [Example 136] | > 90%
c1ccc(Oc2ncc(-c3ccnc4[nH]ccc34)cn2)cc1 [Example 138] | > 90%
c1ccc(Oc2ncc(-c3ccnc4ncccc34)cn2)cc1 [Example 139, 4-(2-Phenoxypyrimidin-5-Yl)-1,8-Naphthyridine] | > 90%
Nc1cn2cc(-c3cnc(Oc4ccccc4)nc3)ccc2n1 [Example 140] | > 90%
COc1nc(Oc2ccccc2)ncc1-c1ccc2nccn2c1 [Example 142] | > 90%
Fc1ccccc1Oc1ncc(-c2ccc3ncnn3c2)cn1 [Example 144] | > 90%
Fc1cccc(Oc2ncc(-c3ccc4ncnn4c3)cn2)c1 [Example 145] | > 90%
Fc1ccc(Oc2ncc(-c3ccc4ncnn4c3)cn2)cc1 [Example 146] | > 90%
NC1=NC2C=CC(c3cnc(Oc4ccccc4)nc3)=CC2=N1 (stereo not shown) [Example 147] | > 90%
Fc1ccccc1Oc1ncc(-c2cn3ccnc3cn2)cn1 [Example 149] | > 90%
Fc1cccc(Oc2ncc(-c3cn4ccnc4cn3)cn2)c1 [Example 150] | > 90%
Fc1ccccc1Oc1ncc(-c2ccc3ccnn3c2)cn1 [Example 152] | > 90%
Fc1cccc(Oc2ncc(-c3ccc4ccnn4c3)cn2)c1 [Example 153] | > 90%
Fc1ccc(Oc2ncc(-c3ccc4ccnn4c3)cn2)cc1 [Example 154] | > 90%
Fc1ccccc1Oc1ncc(-c2ccc3cncn3c2)cn1 [Example 156] | > 90%
Fc1cccc(Oc2ncc(-c3ccc4cncn4c3)cn2)c1 [Example 157] | > 90%
Fc1ccc(Oc2ncc(-c3ccc4cncn4c3)cn2)cc1 [Example 158] | > 90%

Structure (SMILES) | inhibition in vivo at 30 mg/kg
COc1nc(Oc2ccccc2)ncc1-c1ccc2nncn2c1 [Example 159] | > 90%
COc1nc(Oc2ccccc2)ncc1-c1ccc2nccn2n1 [Example 160] | > 90%
Fc1ccccc1Oc1ncc(-c2ccc3cnnn3c2)cn1 [Example 174] | > 90%
Fc1cccc(Oc2ncc(-c3ccc4cnnn4c3)cn2)c1 [Example 175] | > 90%
Fc1ccc(Oc2ncc(-c3ccc4cnnn4c3)cn2)cc1 [Example 176] | > 90%
Cc1cn2cc(-c3cnc(Oc4ccccc4F)nc3)ccc2n1 [Example 178] | > 90%
Cc1cn2cc(-c3cnc(Oc4cccc(F)c4)nc3)ccc2n1 [Example 179] | > 90%
Cc1cn2cc(-c3cnc(Oc4ccc(F)cc4)nc3)ccc2n1 [Example 180] | > 90%
Cc1cn2ccc(-c3cnc(Oc4ccccc4F)nc3)cc2n1 [Example 182] | > 90%
Cc1cn2ccc(-c3cnc(Oc4cccc(F)c4)nc3)cc2n1 [Example 183] | > 90%
Fc1ccccc1Oc1ncc(-c2ccn3nncc3c2)cn1 [Example 185] | > 90%
Fc1cccc(Oc2ncc(-c3ccn4nncc4c3)cn2)c1 [Example 186] | > 90%
Fc1ccc(Oc2ncc(-c3ccn4nncc4c3)cn2)cc1 [Example 187] | > 90%
Fc1cccc(Oc2ncc(-c3cnc4ncnn4c3)cn2)c1 [Example 189] | > 90%
Cc1cnc2ccc(-c3cnc(Oc4ccccc4F)nc3)cn12 [Example 191] | > 90%
Cc1cnc2ccc(-c3cnc(Oc4cccc(F)c4)nc3)cn12 [Example 192] | > 90%
Cc1cnc2ccc(-c3cnc(Oc4ccc(F)cc4)nc3)cn12 [Example 193] | > 90%
Fc1ccccc1Oc1ncc(-c2ccn3nccc3c2)cn1 [Example 195] | > 90%
Fc1cccc(Oc2ncc(-c3ccn4nccc4c3)cn2)c1 [Example 196] | > 90%
Fc1ccc(Oc2ncc(-c3ccn4nccc4c3)cn2)cc1 [Example 197] | > 90%
Cc1c(-c2cnc(Oc3ccccc3F)nc2)ccc2nccn12 [Example 199] | > 90%
Cc1c(-c2cnc(Oc3cccc(F)c3)nc2)ccc2nccn12 [Example 200] | > 90%
Cc1c(-c2cnc(Oc3ccc(F)cc3)nc2)ccc2nccn12 [Example 201] | > 90%
Cc1nc2ccc(-c3cnc(Oc4ccccc4F)nc3)cn2c1C [Example 202] | > 90%
Cc1nc2ccc(-c3cnc(Oc4ccc(F)cc4)nc3)cn2c1C [Example 203] | > 90%

Structure (SMILES) | inhibition in vivo at 30 mg/kg
Cc1nc2cc(-c3cnc(Oc4ccccc4F)nc3)ccn2c1C [Example 205] | > 90%
Cc1nc2cc(-c3cnc(Oc4cccc(F)c4)nc3)ccn2c1C [Example 206] | > 90%
Cc1nc2cc(-c3cnc(Oc4ccc(F)cc4)nc3)ccn2c1C [Example 207] | > 90%
COCc1cn2cc(-c3cnc(Oc4ccccc4)nc3)ccc2n1 [Example 208] | > 90%
COCc1cn2cc(-c3cnc(Oc4ccccc4F)nc3)ccc2n1 [Example 209] | > 90%
COCc1cn2cc(-c3cnc(Oc4cccc(F)c4)nc3)ccc2n1 [Example 210] | > 90%
Fc1cccc(Oc2ncc(-c3ccn4cnnc4c3)cn2)c1 [Example 212] | > 90%
Fc1ccc(Oc2ncc(-c3ccn4cnnc4c3)cn2)cc1 [Example 213] | > 90%
Cn1ccc2ccc(-c3cnc(Oc4ccccc4)nc3)nc21 [Example 215] | > 90%
Fc1ccccc1Oc1ncc(-c2ccn3cc(C(F)(F)F)nc3c2)cn1 [Example 217] | > 90%
Fc1cccc(Oc2ncc(-c3ccn4cc(C(F)(F)F)nc4c3)cn2)c1 [Example 218] | > 90%
Fc1ccc(Oc2ncc(-c3ccn4cc(C(F)(F)F)nc4c3)cn2)cc1 [Example 219] | > 90%
O=C1NCCCN1c1cnc(Oc2cccc(F)c2)nc1 [Example 221, 1-(2-(3-Fluorophenoxy)Pyrimidin-5-Yl)Tetrahydropyrimidin-2 (1H)-One] | > 90%
Fc1ccc(Oc2ncc(N3CCOCC3)cn2)cc1 [Example 225] | > 90%
OC1CCN(c2cnc(Oc3cccc(F)c3)nc2)CC1 [Example 227] | > 90%
OC1CCN(c2cnc(Oc3ccc(F)cc3)nc2)CC1 [Example 228] | > 90%
O=C1COCCN1c1cnc(Oc2cccc(F)c2)nc1 [Example 230] | > 90%
O=C1COCCN1c1cnc(Oc2ccc(F)cc2)nc1 [Example 231] | > 90%
O=C1CCOCCN1c1cnc(Oc2ccccc2)nc1 [Example 232] | > 90%
O=C1CCOCCN1c1cnc(Oc2cccc(F)c2)nc1 [Example 233] | > 90%
O=C1CCOCCN1c1cnc(Oc2ccc(F)cc2)nc1 [Example 234] | > 90%
Cc1nc2cc(-c3cnc(Oc4ccccc4)nc3)ccc2s1 [Example 238] | > 90%
Nc1nc2ccc(-c3cnc(Oc4ccccc4)nc3)cc2s1 [Example 240, 6-(2-Phenoxypyrimidin-5-Yl)Benzo[d]Thiazol-2-Amine] | > 90%

Reference: US12391674B2, “Heterocyclic compounds for the treatment of epilepsy” (OTSUKA PHARMACEUTICAL CO., LTD., priority 2018, dated 2025)
